This is an account of results in patent US9205129B2, “Methods of treatment and screening assays for HIF-1α regulation” (University of Rochester, priority 2009, dated 2015).

Peptide text beside a SMILES is read from it. * marks the point of attachment. Cbz = O=C(OCc1ccccc1)*

In experiment [1] the test system is mouse HIF-1α (Myc-HIF-6×His-V5). In words: Western blot of V5-tagged mouse HIF-1α expressed in N2A neuroblastoma line. It is filed as cell-based. As to conditions: N2A cells, 24 hours post-transfection (FIG. 7A). On the procedure: (§1) FIGS. 7A-C illustrate in vitro characterization and purification of HIF-1α cleavage product. […] Effects of MKP overexpression were tested by co-expressing either empty plasmid (pSG5) or vector expressing wildtype MKP-1 (pSG5-MKPwt; compare lanes 1 vs 2 & 3). Parallel samples were also treated with the proteosome inhibitor MG132 to determine whether sub fragments could be stabilized. Full-length and c-terminal fragments were identified using the carboxy-terminal V5 tag. FIG. 7B depicts optimization of expression conditions for human HIF-V5-6×His. Full-length and the proteolytic cleavage form of human HIF-1α are observed when expressed in the mouse N2A line. Other bands are shown as present in both samples and are cross reactive contaminants with V5 antibody. FIG. 7C illustrates affinity purification of the c-terminal HIF-1α fragment using the 6×His tag resin. N2A cells were transfected with the empty (pUB6-MCS) or HIF-expressing plasmids (pUb6-hHIF) and exposed to MG132 to induce fragment accumulation.
Cell lysates were obtained by rinsing monolayers with ice-cold PBS×1 followed by the addition of RIPA buffer containing both protease and phosphatase inhibitor cocktails (Sigma-Aldrich, St. Louis, Mo.). Samples were boiled in Laemmeli buffer and electrophoresed under reducing conditions on polyacrylamide gels. […]
(A western blot detects proteins with antibodies after separation by electrophoresis.)

In experiment [2] the test system is human HIF-1α (HIF-V5-6×His). In words: Western blot of human HIF-1α fusion expressed in N2A line. The experiment is classed as cell-based. The settings on record: human HIF-1α fusion in N2A line treated with MG132 (FIG. 7B). On the procedure: as §1
The addition of MKPwt reduced overall levels of both full-length and C-terminal fragments. […] Bands correlating to full length (approximately 110 kDa) and the c-terminal fragment (running at approximately 48 kDa) were isolated from polyacrylamide gels and subjected to LC-MS/MS. […]

The next experiment concerns HIF-1α (myc-HIF-V5). The experiment is described as follows: Cycloheximide pulse-chase / Western blot of myc-HIF-V5 in transfected HN33 cells. The experiment is classed as cell-based, mouse. The procedure: Cell lysates were obtained by rinsing monolayers with ice-cold PBS×1 followed by the addition of RIPA buffer containing both protease and phosphatase inhibitor cocktails (Sigma-Aldrich, St. Louis, Mo.). Samples were boiled in Laemmeli buffer and electrophoresed under reducing conditions on polyacrylamide gels. Proteins were transferred to PVDF membranes and blocked in TBS-T ([…] Tris-HCl, pH 8.0, 0.9% NaCl, and 0.1% Tween-20™) containing 5% non-fat dry milk for 1 h at room temperature. Antibodies used in this study included: NeuN (Chemicon, Temecula, Calif.; 1:500), GFP, HIF-1α (Novus Biologicals, NB-100-449 and NB-100-131, Littleton, Colo.), TUJ1 & MKP-1 (Santa Cruz Biologicals, San Diego, Calif.; 1:500) Caspase 9, cleaved caspase-3, -9, -12, and cleaved PARP (CST, Danvers, Mass.). Blots were exposed to HRP conjugated secondary antibodies (Santa Cruz Biologicals, CA) prior to chemiluminescent detection (Amersham). To resolve molecular weight changes in HIF-1α, crude lysates were run on 15% PAGE gels.
The cDNA for mouse HIF-1α was generated by RT-PCR using total cDNA from HN33.11 cultures using Superscript III according to the manufacturer's instructions using the random hexamer method (Invitrogen, Carlsbad, Calif.). PCR was performed using forward (5′-[…]-3′ (SEQ ID NO:1)) and reverse (5′-TCAG-[…]-3′ (SEQ ID NO:2)) primers as described (Chun et al., “A New HIF-1 Alpha Variant Induced by Zinc Ion Suppresses HIF-1-Mediated Hypoxic Responses,” J. Cell Sci. 114:4051-61 (2001), which is hereby incorporated by reference in its entirety), and the cDNA was sub-cloned to pCDNA3.1 and sequenced in its entirety. This sequence was sub-cloned by PCR using high fidelity polymerase and both the forward primer (5′-GCGGGATCCA […] GAA-3′ (SEQ ID NO:3)) containing a BamHI site followed by a Kozak consensus sequence and the Myc epitope tag and the reverse primer (5′-ggggcggccgcTAA CTTGATCCAAAGC […]-3′ (SEQ ID NO:4)) containing the Not I site allowing in frame ligation with the V5-6×His tag in pUB6-V5-6×HIS (Invitrogen). […]

The subject of a further experiment is HIF-1α. As to conditions: effect of lambda phosphatase, compared with MEK inhibitor; cited from earlier work.

Turning to `CC(C)C[C@@H](C=O)NC(=O)[C@H](CC(C)C)NC(=O)[C@H](CC(C)C)NC(=O)OCc1ccccc1` [MG132] (Cbz-Leu-Leu-Leu-aldehyde), in experiment [1], the “detection of V5-reactive C-terminal fragment of HIF-1α” value is reported as “detected only after treatment”. The “formation of c-terminal HIF-1α fragment” value in experiment [2] was “produced the expected c-terminal HIF-1α fragment”. In addition, the “induction of LMW-HIF-1α species” value in the experiment with HIF-1α (myc-HIF-V5) (FIG. 4D legend, HN33 lysates, CHX pulse-chase and MG132) is on record as “inducing several LMW-HIF-1α species”. For the same compound, the “effect on MKP-1 mediated destabilization of HIF-1α” value in the experiment on HIF-1α (myc-HIF-V5) (HN33 cells transfected with dual-tagged vector, normoxic, cycloheximide pulse chase (FIG. 4D)) is “negate the destabilizing effect of MKP-1”. The “accumulation of intermediate myc-HIF-V5 species” value in the experiment with HIF-1α (myc-HIF-V5) (HN33 cells, independent of MKP-1 levels (FIG. 4D, double asterisk)) is “enhanced the accumulation”.
With `COc1cccc(-c2cc(=O)c3ccccc3o2)c1N` [PD98059], the “reduction of HIF-1α complex doublet to a single 103 kDa band” value in the experiment with HIF-1α was “effect mimicked”.
